Columns and labels:
[1] = tested on: binding between mTORC2 and ribosomes; assay: PLA of mTORC2-ribosome binding with Ca2+ chelators; assay type: cell-based; details: HT1080 cells, 10 μM
Method: FIG. 46A is the PLA result between the indicated proteins (fine and bright spots) in HT1080 cells treated with BAPTA-AM (10 μM), BAPTA (10 μM), and EGTA-AM (10 μM). The scale bar represents 15 μm. The graph on the right quantifies the fine, bright points (n=3, independent experiment). Data were expressed as mean±SD. **p<0.01; ****p<0.0001, Tukey's post hoc test after member ANOVA.
The role of Ca^2+ in mTORC2 activation was investigated. Ca^2+ depletion by BAPTA acetoxymethyl ester (BAPTA-AM) rather than BAPTA or slow Ca^2+ chelator (ie, EGTA-AM) blocked the binding between mTORC2 and ribosomes as shown in PLA analysis results. (See FIG. 46A).

BI-1 (TMBIM6) = assay: HT1080 xenograft with SAMiRNA knockdown of BI-1; assay type: in vivo, nude mice; details: 1 mg/kg, intravenously in the tail every 3 days
Method: FIGS. 13A-13D show the volume, weight, and size of tumors derived from HT1080 in TMBIM6-target SAMiRNA, control SAMiRNA or nude mice injected with saline solution (n=5 mice per group) through the tail vein. Data were expressed as mean±SD. *p<0.05, ***p<0.001, ****p<0.0001, Bonferroni's post hoc test (B) after binary ANOVA, member ANOVA followed by Tukey's post hoc test.
In culture, exponentially growing BI-1 (TMBIM6) knockout and WT HT1080 cells were treated with trypsin and quantified through trypan blue staining differentiation, and 3-5×10^6 cells were resuspended in 0.1 ml PBS. Cells were injected subcutaneously into the flanks of each mouse. 5×10^6 cells were injected into 0.1 ml PBS for SMAiRNA or BIA treatment. When the weight of the tumor reaches about 100 mg (7-10 days after inoculation), mice are randomly assigned 1 mg/kg BI-1 SAMiRNA diluted in saline, 1 mg/kg BIA diluted in DMSO (final concentration: 10% v/v) or vehicle (saline solution or DMSO, 10% v/v) was divided into groups.
SAMiRNA was administered intravenously in the tail every 3 days and BIA was injected intraperitoneally 5 days per week over 3 weeks. […].
After 25-28 days, the mice were euthanized, solid tumors were incised, and tumor volumes were recorded. Tumor size was measured with a caliper. The tumor volume (mm^3) was calculated by the formula [(shortest diameter)2×longest diameter]/2.

CC(=O)OCOC(=O)CN(CC(=O)OCOC(C)=O)c1ccccc1OCCOc1ccccc1N(CC(=O)OCOC(C)=O)CC(=O)OCOC(C)=O [BAPTA-AM, BAPTA acetoxymethyl ester]
binding between mTORC2 and ribosomes [1]: blocked

SAMiRNA: self-assembled micelle inhibitory RNA against BI-1, sequence 5′-AAGGCACUGCAUUGAUCUUU-3′, obtained from Bioneer (siRNA; micelle-forming conjugate, chemistry not fully specified)
tumor formation and Ki67 expression (BI-1 (TMBIM6)): reduced

Reference: US20240139125A1 (INDUSTRIAL COOPERATION FOUNDATION JEONBUK NATIONAL …, priority 2020, published 2024)
